From ChEMBL document CHEMBL4304794
Calls of active or inactive are those of the source. The calls are words filed in the database; no cut-off is given here.

Assays:
[1] = target: Programmed cell death 1 ligand 1 (Mus musculus) (UniProt Q9EP73); assay: Inhibition of recombinant mouse N-terminal PDL1 (19 to 238 residues) assessed as recovery of mouse splenocyte proliferation at 100 nM by CFSE-based FACS analysis relative to control
[2] = target: Programmed cell death protein 1 (Homo sapiens) (UniProt Q15116); assay: Binding affinity to biotinylated recombinant human C-terminal FC -tagged PD1 (25 to 167 residues) at 0.3 to 300 uM by SPR analysis
Chain of Programmed cell death protein 1 (Homo sapiens) (Q15116 whole entry, the tested form may be a part): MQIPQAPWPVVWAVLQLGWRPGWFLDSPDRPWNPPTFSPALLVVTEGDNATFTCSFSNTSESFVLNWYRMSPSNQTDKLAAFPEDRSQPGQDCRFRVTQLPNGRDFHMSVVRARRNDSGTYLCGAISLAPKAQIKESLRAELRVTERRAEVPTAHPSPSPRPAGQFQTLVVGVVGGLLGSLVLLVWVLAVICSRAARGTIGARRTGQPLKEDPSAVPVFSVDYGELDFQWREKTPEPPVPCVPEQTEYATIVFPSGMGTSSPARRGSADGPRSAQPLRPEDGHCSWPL

[3] = target: Programmed cell death 1 ligand 1 (Homo sapiens) (UniProt Q9NZQ7); assay: Inhibition of PDL1 in human […] cells assessed as recovery of mouse splenocyte proliferation at 100 nM by CFSE-based FACS analysis relative to control; type: cell-based
Chain of Programmed cell death 1 ligand 1 (Homo sapiens) (Q9NZQ7 whole entry): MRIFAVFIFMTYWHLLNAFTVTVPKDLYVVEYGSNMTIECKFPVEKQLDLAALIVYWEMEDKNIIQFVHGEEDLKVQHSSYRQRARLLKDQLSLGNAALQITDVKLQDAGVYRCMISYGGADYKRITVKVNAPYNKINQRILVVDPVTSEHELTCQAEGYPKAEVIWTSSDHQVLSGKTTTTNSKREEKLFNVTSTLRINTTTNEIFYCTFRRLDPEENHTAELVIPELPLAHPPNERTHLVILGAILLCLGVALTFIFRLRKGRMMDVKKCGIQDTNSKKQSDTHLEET

Chain of Programmed cell death 1 ligand 1 (Mus musculus) (Q9EP73 whole entry, the tested form may be a part): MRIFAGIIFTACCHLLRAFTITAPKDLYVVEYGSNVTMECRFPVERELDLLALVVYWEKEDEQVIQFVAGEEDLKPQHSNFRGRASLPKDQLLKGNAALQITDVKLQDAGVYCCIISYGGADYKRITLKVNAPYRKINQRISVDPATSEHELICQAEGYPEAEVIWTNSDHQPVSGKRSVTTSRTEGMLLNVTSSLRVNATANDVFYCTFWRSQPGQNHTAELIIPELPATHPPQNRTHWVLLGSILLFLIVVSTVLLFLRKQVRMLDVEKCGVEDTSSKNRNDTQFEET

Row | Compound | inhibition [1] | Activity [2] | inhibition [3]
1 | C#CC[C@H](NC(=O)N[C@H](C(=O)O)[C@@H](C)O)c1nc(-c2cnccn2)no1 | 92% | inactive | 
2 | NC(=O)C[C@H](N)c1nc([C@@H](N)CO)no1 | 93% | inactive | 
3 | C[C@@H](O)[C@H](NC(=O)N[C@@H](CC(N)=O)C(=O)NNC(=O)[C@@H](N)CO)C(=O)O |  | inactive | 68%
